Data as given in US5977298A, “Calcitonin derivatives” (Kvowa Hakko Kogyo Co., Ltd., priority 1995, dated 1999).
Bridges are numbered along the chain shown (N, C = ends). Where no end group is shown, it is not given here. [ ]: non-standard residue; d: D form. Gla = N[C@@H](CC(C(=O)O)C(=O)O)C(=O)O; Hyp = O=C(O)[C@@H]1C[C@@H](O)CN1; βAla = NCCC(=O)O

Test system: Osteoclast-like multinucleated cells (osteoclasts)
Experiment: Calcitonin-like biological activity: bone resorption pit formation by osteoclasts on ivory pieces
Type: cell-based, mouse
Conditions: 48 hours
Description: 1-1 Preparation of Osteoclasts
Osteoclast-like multinucleated cells which were derived by coculturing mouse osteoblasts and bone marrow cells on collagen gel according to the method described in Akatsu T. et al., J. Bone Miner. Res., 7, 1297-1306 (1992) were used as osteoclasts. That is, osteoblasts derived from mouse vault of skull (5×10^5 cells) were put in a 100 mm dish (IWAKI) collagen-coated with Cellmatrix Type I-A (Nitta Gelatin Co., Ltd.) and cultured for one day in a CO2 incubator (37° C., 5% CO2) [medium: αMEM+10% FCS (both by GIBCO Co., Ltd.)]. After the medium was removed, mouse bone marrow cells (6×10^6 cells) were put on the osteoblasts and 10^-8 M calcitriol (Wako Pure Chemical Industries, Ltd.) and 10^-7 M dexamethasone (Sigma Chemical Co.) were added thereto. TRAP-positive multinucleate cells (osteoclast-like cells) which were obtained 7 days after the inoculation of osteoblasts were used as osteoclasts.
1-2 Culturing of Osteoclasts on Ivory Pieces
After removal of the medium from the dish, and rinsing with PBS(-), a mixture of collagenase and dispase (collagenase: Wako Pure Chemical Industries, Ltd., dispase: Godo Shusei Co., Ltd.) was added thereto to suspend the cells. The cell suspension was put into a tube and centrifuged at 800 rpm for 5 minutes. After removal of the supernatant by suction, the cells were suspended again in αMEM and the suspension was put on ivory pieces (diameter: 4 mm, thickness: 20 μm) in 100 μl portions. The ivory pieces were left to stand in a CO2 incubator for 2 hours to attach the osteoclasts thereto, and then taken out and gently transferred to a 48-well plate (IWAKI) to which a medium containing a test compound had been added in advance to determine the bone resorption activity 48 hours later according to the method described below. The medium containing the test compound was prepared by adding the test compound dissolved in HEPES buffer to the medium described in 1-1 to give the final concentrations shown in Tables 2 and 3.
1-3 Determination of Bone Resorption Activity by Staining of Ivory Pieces and Measurement of Bone Resorption Pit Area
The ivory pieces taken out of the medium were put into a tube containing 0.1 N aqueous ammonia and subjected to sonication treatment with a sonicator for 20-30 seconds to remove the osteoclasts. After being washed with distilled water to remove ammonia, the ivory pieces were dipped in a hematoxylin-eosin staining solution to stain resorption pits. The bone resorption pit formation rate was calculated based on microphotographs of stained ivory pieces according to the following equation by the use of an image analyzer. [formula]
The bone resorption inhibitory activity of test compounds were calculated according to the following equation. [formula]
A; Bone resorption pit formation rate obtained using no test compound
B; Bone resorption pit formation rate obtained using a test compound

Substance	Bone resorption inhibitory activity (% inhibition) (compound concentration 10^-6 M) [%]	other results
Compound 1: SEQ ID NO:1; cyclic peptide Compound 15 condensed to the N-terminus of the Compound 17 peptide (GNWHGTAPDWLGKLSQELHKLQTYPRTNTGSGTP-NH2; lactam N-9)	–	Bone resorption inhibitory activity (% inhibition) (compound concentration 10^-7 M): 61%
Compound 2: SEQ ID NO:2; cyclic peptide Compound 16 condensed to the N-terminus of the Compound 18 peptide (GNWHGTAPDVLGKLSQELHKLQTYPRTNTGSGTP-NH2; lactam N-9)	–	Bone resorption inhibitory activity (% inhibition) (compound concentration 10^-8 M): 36%
Compound 3: SEQ ID NO:3; cyclic peptide Compound 16 condensed to the N-terminus of the Compound 19 peptide (GNWHGTAPDVLAALAAALAALAALPRTNTGSGTP-NH2; lactam (positions not given here); not fully specified (bridges); printed as ⌐GNWHGTAPDVLAALAAALAALAALPRTNTGSGTP—NH$_2$)	65	–
Compound 4: SEQ ID NO:4; cyclic peptide Compound 16 condensed to the N-terminus of the Compound 20 peptide (GNWHGTAPDMLGTYTQDFNKFHTFPQTAIGVGAP-NH2; lactam (positions not given here); not fully specified (bridges); printed as ⌐GNWHGTAPDMLGTYTQDFNKFHTFPQTAIGVGAP—NH$_2$; also: cyclic peptide Compound 16 condensed at N-terminus)	29	–
Compound 5: SEQ ID NO:5; cyclic peptide Compound 16 condensed to the N-terminus of the Compound 21 peptide (GNWHGTAPDGLGSLTEVLAKLAAYPRTNTGSGTP-NH2; lactam (positions not given here); not fully specified (bridges); printed as ⌐GNWHGTAPDGLGSLTEVLAKLAAYPRTNTGSGTP—NH$_2$; also: cyclic peptide Compound 16 condensed at N-terminus)	35	–
Compound 6: SEQ ID NO:6; cyclic peptide Compound 16 condensed to the N-terminus of the Compound 22 peptide (GNWHGTAPDGLGSLTEVLAKLAAYPRSQTGAGTP-NH2; lactam (positions not given here); not fully specified (bridges); printed as ⌐GNWHGTAPDGLGSLTEVLAKLAAYPRSQTGAGTP—NH$_2$; also: cyclic peptide Compound 16 condensed at N-terminus)	29	–
Compound 7: SEQ ID NO:7; cyclic peptide Compound 16 condensed to the N-terminus of the Compound 23 peptide (GNWHGTAPDGLGSLTEVLAKLAAY[Hyp]RTNTGSGT[Hyp]-NH2; lactam (positions not given here); not fully specified (bridges); also: cyclic peptide Compound 16 condensed at N-terminus)	–	Bone resorption inhibitory activity (% inhibition) (compound concentration 10^-8 M): 50%
Compound 8: SEQ ID NO:8; cyclic peptide Compound 16 condensed to the N-terminus of the Compound 24 peptide (GNWHGTAPDGLGSLTEVLAKLAAYPRTNT[βAla]SGTP-NH2; lactam (positions not given here); not fully specified (bridges); also: cyclic peptide Compound 16 condensed at N-terminus)	39	–
Compound 10: SEQ ID NO:10; cyclic peptide Compound 16 condensed to the N-terminus of the Compound 26 peptide (GNWHGTAPDGLGSLT[Gla]VLAKLAEYPRTNTGSGTP-NH2; lactam (positions not given here); not fully specified (bridges); also: cyclic peptide Compound 16 condensed at N-terminus)	27	–
Compound 11: SEQ ID NO:11; cyclic peptide Compound 16 condensed to the N-terminus of the Compound 27 peptide (GNWHGTAPDGLGSLTEVLAKLA[Gla]YPRTNTGSGTP-NH2; lactam (positions not given here); not fully specified (bridges); also: cyclic peptide Compound 16 condensed at N-terminus)	–	Bone resorption inhibitory activity (% inhibition) (compound concentration 10^-7 M): 42%
Compound 13: SEQ ID NO:13; cyclic peptide Compound 16 condensed to the N-terminus of the Compound 29 peptide (GNWHGTAPDGLGSLTEVLAKLAEYP[dR]TNTGSGTP-NH2; lactam (positions not given here); not fully specified (bridges); printed as ⌐GNWHGTAPDGLGSLTEVLAKLAEYPrTNTGSGTP┐— NH$_2$; also: cyclic peptide Compound 16 condensed at N-terminus)	35	–
Compound 14: SEQ ID NO:14; cyclic peptide Compound 16 condensed to the N-terminus of the Compound 30 peptide (GNWHGTAPDGLGSLTEVLAKLAEYPKTNTGSGTP-NH2; lactam (positions not given here); not fully specified (bridges); printed as ⌐GNWHGTAPDGLGSLTEVLAKLAEYPKTNTGSGTP┐— NH$_2$; also: cyclic peptide Compound 16 condensed at N-terminus)	40	–
H-LGKLSQELHKLQTYPRTNTGSGTP-NH2 [Compound 17, reference compound]	–	Bone resorption inhibitory activity (% inhibition) (compound concentration 10^-7 M): 0%
H-Val-Leu-Ala-Ala-Leu-Ala-Ala-Ala-Leu-Ala-Ala-Leu-Ala-Ala-Leu-Pro-Arg-Thr-Asn-Thr-Gly-Ser-Gly-Thr-Pro-NH2 (H-VLAALAAALAALAALPRTNTGSGTP-NH2) [Compound 19, linear calcitonin-like peptide, comparison for Compound 3, reference compound]	6	–
H-Val-Leu-Gly-Lys-Leu-Ser-Gln-Glu-Leu-His-Lys-Leu-Gln-Thr-Tyr-Pro-Arg-Thr-Asn-Thr-Gly-Ser-Gly-Thr-Pro-NH2 (H-VLGKLSQELHKLQTYPRTNTGSGTP-NH2) [Compound 18, linear partial calcitonin peptide, comparison for Compound 2, reference compound]	–	Bone resorption inhibitory activity (% inhibition) (compound concentration 10^-8 M): 15%
